According to ChEMBL document CHEMBL4725289, “Structure-activity relationship studies for the development of inhibitors of murine adipose triglyceride lipase (ATGL)” (Bioorg Med Chem, 2020):

Key:
[1] = biological target: T1, Patatin-like phospholipase domain-containing protein 2 (Mus musculus, UniProt Q8BJ56); test: Inhibition of murine ATGL expressed in COS-7 cells; format: cell-based
T1 sequence (Q8BJ56 whole entry): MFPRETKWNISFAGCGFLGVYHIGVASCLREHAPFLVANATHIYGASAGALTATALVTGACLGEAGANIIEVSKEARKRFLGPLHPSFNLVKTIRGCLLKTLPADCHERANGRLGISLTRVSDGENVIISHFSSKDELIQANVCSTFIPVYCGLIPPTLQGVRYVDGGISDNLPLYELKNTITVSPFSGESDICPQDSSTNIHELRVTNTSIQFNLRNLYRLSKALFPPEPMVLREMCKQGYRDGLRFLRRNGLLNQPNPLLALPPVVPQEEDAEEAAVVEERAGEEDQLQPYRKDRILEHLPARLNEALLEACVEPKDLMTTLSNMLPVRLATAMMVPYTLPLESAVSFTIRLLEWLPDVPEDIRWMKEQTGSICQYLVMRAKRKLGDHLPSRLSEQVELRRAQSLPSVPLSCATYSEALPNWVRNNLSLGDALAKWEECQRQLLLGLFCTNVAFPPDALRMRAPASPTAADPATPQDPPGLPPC

[2] = biological target: T2, Patatin-like phospholipase domain-containing protein 2 (Mus musculus) (UniProt Q8BJ56); test: Inhibition of murine ATGL expressed in COS-7 cells at 200 uM relative to control; format: cell-based
T2 sequence (whole entry): T1 sequence (Q8BJ56 whole entry)

[3] = biological target: T1, Patatin-like phospholipase domain-containing protein 2; test: Inhibition of murine ATGL
[4] = biological target: T2, Patatin-like phospholipase domain-containing protein 2 (Mus musculus); test: Inhibition of murine ATGL at 200 uM relative to control
[5] = biological target: T1, Patatin-like phospholipase domain-containing protein 2; test: Inhibition of recombinant murine ATGL expressed in Escherichia coli XL-1 lysates; format: subcellular
[6] = biological target: T2, Patatin-like phospholipase domain-containing protein 2 (Mus musculus); test: Inhibition of recombinant murine ATGL expressed in Escherichia coli XL-1 lysates at 200 uM relative to control; format: subcellular

| SMILES | IC50 [1] [µM] | inhibition [2] [%] | IC50 [3] [µM] | inhibition [4] [%] | IC50 [5] [µM] | inhibition [6] [%] |
| --- | --- | --- | --- | --- | --- | --- |
| CCOc1ccc(-c2cccc(C(=O)Oc3ccc([N+](=O)[O-])cc3)c2)cc1 | 150 | 56 | – | – | – | – |
| CCOc1ccc(-c2cccc(S(=O)(=O)NC)c2)cc1 | 200 | 47 | – | – | – | – |
| CCOc1ccc(-n2cc(O)c(C(=O)O)n2)cc1 | – | – | > 200 | 15 | – | – |
| CN(C)C(=O)N(C)c1cccc(-c2ccc(N(C)C)cc2)c1 | 70 | 74 | – | – | – | – |
| CCOC(=O)Nc1cccc(-c2ccc(N(C)C)cc2)c1 | 3 | 93 | – | – | – | – |
| CCOC(=O)c1ccnc(-c2ccc(OCC)cc2)c1 | 80 | 87 | – | – | – | – |
| CCNS(=O)(=O)c1cccc(-c2ccc(OCC)cc2)c1 | 200 | 46 | – | – | – | – |
| CCOC(=O)c1cccc(-c2ccncc2)c1 | > 200 | 40 | – | – | – | – |
| CCOC(=O)c1ccc(-c2ccc(OCC)cc2)s1 | 70 | 81 | – | – | – | – |
| CCOC(=O)c1cccc(-c2ccc(OC)cc2)c1 | 80 | 77 | – | – | – | – |
| CCOC(=O)c1cccc(-c2ccc(OCC)c([N+](=O)[O-])c2)c1 | 200 | 44 | – | – | – | – |
| CCOC(=O)c1cccc(-c2ccc(OCC)cc2)n1 | 60 | 79 | – | – | – | – |
| CCOc1ccc(-c2cccc(N)c2)cc1 | 100 | 65 | – | – | – | – |
| CCOC(=O)c1cccc(-c2ccc3c(ccn3C)c2)c1 | 75 | 84 | – | – | – | – |
| COC(=O)Nc1cccc(-c2ccc(N(C)C)cc2)c1 | 5 | 95 | – | – | – | – |
| CC(C)OC(=O)Nc1cccc(-c2ccc(N(C)C)cc2)c1 | 82 | 69 | – | – | – | – |
| CCOc1ccc(-c2cccc(C(=O)N3CCCC3)c2)cc1 | 160 | 53 | – | – | – | – |
| CCOC(=O)c1cc(-c2ccc(OCC)cc2)ccn1 | 105 | 72 | – | – | – | – |
| CCCCOC(=O)c1cccc(-c2ccc(OCC)cc2)c1 | 100 | 61 | – | – | – | – |

| SMILES | IC50 [1] [µM] | inhibition [2] [%] | IC50 [3] [µM] | inhibition [4] [%] | IC50 [5] [µM] | inhibition [6] [%] |
| --- | --- | --- | --- | --- | --- | --- |
| CCOC(=O)c1cccc(-c2ccc3[nH]ccc3c2)c1 | 60 | 80 | – | – | – | – |
| CCOc1ccc(-c2cccc(NC(=O)N(C)C)c2)cc1 | 70 | 68 | – | – | 9 | 83 |
| CCOC(=O)c1cccc(-c2ccc3c(c2)CCN3)c1 | 120 | 66 | – | – | – | – |
| CCOC(=O)c1cccc(-c2ccc(OCC)nc2)c1 | 130 | 68 | – | – | – | – |
| CN(C)c1ccc(-c2cccc([N+](=O)[O-])c2)cc1 | > 200 | 21 | – | – | – | – |
| CCOc1ccc(-c2cccc(NC(C)=O)c2)cc1 | 200 | 52 | – | – | – | – |
| CCOC(=O)c1cccc(-c2ccsc2)c1 | 75 | 67 | – | – | – | – |
| CCOC(=O)c1cccc(-c2ccc(CN3CCN(C)CC3)cc2)c1 | > 200 | 26 | – | – | > 200 | 32 |
| CN(C)c1ccc(-c2cccc(N)c2)cc1 | 100 | 70 | – | – | – | – |
| CCOC(=O)c1cccc(-c2ccc(Br)cc2)c1 | – | – | – | – | > 200 | 34 |
| CCOC(=O)c1cncc(-c2ccc(OCC)cc2)c1 | 130 | 70 | – | – | – | – |
| CCOc1ccc(-n2cc(O)c(C(=O)OC)n2)cc1 | – | – | 130 | 64 | – | – |
| CCOC(=O)c1cccc(-c2ccc(OCC)cc2)c1 | 50 | 87 | – | – | – | – |
| CN(C)c1ccc(-c2cccc(NC(=O)OCc3ccccc3)c2)cc1 | > 200 | 50 | – | – | – | – |
| CCOC(=O)c1cccc(-c2ccc(CN(C)C)o2)c1 | 190 | 53 | – | – | – | – |
| CCOC(=O)c1cccc(-c2ccc(CN(C)C)cc2)c1 | 150 | 67 | – | – | – | – |
| CCOC(=O)c1cccc(-c2ccc([N+](=O)[O-])cc2)c1 | 95 | 63 | – | – | – | – |
| CCOC(=O)c1cccc(-c2ccc(O)cc2)c1 | 100 | 77 | – | – | – | – |
